Results reported in patent publication US5618795A, “Dibekacin derivatives and arbekacin derivatives active against resistant bacteria, and the production thereof” (Zaidan Hojin Biseibutsu Kagaku Kenkyu Kai, priority 1992, dated 1997).
Converted amounts (≈) assume the structure as drawn. Like-named read-outs stand apart in the source and are kept apart here.

Legend:
[1] = P. J. L. Daniels et al.; cited from earlier work
[2] = Acute toxicity, single intravenous administration to mice; assay type: in vivo; settings: mouse, in vivo; single intravenous administration; mice (ICR-strain, 4 weeks old, female); observations for two weeks; read-out: LD50
Source text: 50% Lethal dosages (LD50, observations for two weeks) of the new compounds of this invention as estimated upon single intravenous administration to mice (ICR-strain, 4 weeks old, female) are as follows:
50% Lethal dosages (LD50, observations for two weeks) of the new compounds of general formula (XVI) according to the seventh aspect of this invention as estimated upon single intravenous administration to mice (ICR-strain, 4 weeks old, female) are as follows: […]

[3] = test system: E. coli K-12 ML1410; assay: MIC by standard serial dilution method on Muller-Hinton's agar; assay type: cell-based; settings: Escherichia coli, K12ML1410; Table 3; 27° C., 18 hours
Method: (§1) Minimum growth inhibitory concentrations (MIC) of each of 2"-amino-2"-deoxyarbekacin (Compound Ia), 2"-amino-5,2"-dideoxyarbekacin (Compound Ib), 2"-amino-2"-deoxydibekacin (Compound IIa) and 2"-amino-5,2"-dideoxydibekacin (Compound IIb) against various bacteria (20 strains) and against clinically isolated strains of MRSA (50 strains) were determined by standard serial dilution method on Muller-Hinton's agar medium (as estimated after cultivating at 27° C. for 18 hours), and the test results obtained are shown in TABLE 3 and TABLE 4, respectively.

[4] = test system: B. cereus ATCC10702; assay: as above; assay type: cell-based; settings: Bacillus cereus
Method: as §1

[5] = test system: Proteus vulgaris OX19; assay: as above; assay type: cell-based
Method: as §1
(§2) Minimum growth inhibitory concentrations (MIC) of each of 2"-amino-5,2"-dideoxy-5-epi-fluoroarbekacin (Compound XVIa) and 2"-amino-5,2"-dideoxy-5-epi-aminoarbekacin (Compound XVIb) against various bacteria (18 strains) and against clinically isolated strains of MRSA (50 strains) were determined by standard serial dilution method on Muller-Hinton's agar medium (as estimated after cultivation at 27° C. for 18 hours), and the test results obtained are shown in TABLE 5 and TABLE 6, respectively.

[6] = test system: E. coli K-12 LA290 R55; assay: as above; assay type: cell-based; settings: Escherichia coli, K12LA290R55, 18 h
Method: as §1, §2

[7] = test system: P. aeruginosa H9; assay: as above; assay type: cell-based; settings: Pseudomonas aeruginosa, H9; Table 3; 27° C., 18 hours; read-out: MIC
Method: as §1, §2

[8] = test system: Staphylococcus aureus FDA209P; assay: as above; assay type: cell-based; settings: Table 3, 27° C., 18 hours
Method: as §1, §2

[9] = test system: E. coli K-12 ML1629; assay: as above; assay type: cell-based; settings: Escherichia coli, K12ML1629; Table 3; 27° C., 18 hours; read-out: MIC
Method: as §1, §2

[10] = test system: Providencia rettgeri GN311; assay: as above; assay type: cell-based
Method: as §1, §2

[11] = test system: Escherichia coli NIHJ; assay: as above; assay type: cell-based; settings: Table 3, 27° C., 18 hours
Method: as §1, §2

[12] = test system: E. coli JR66/W677; assay: as above; assay type: cell-based; settings: Escherichia coli, JR66/W677, 18 h
Method: as §1, §2

[13] = test system: P. aeruginosa TI-13; assay: as above; assay type: cell-based; settings: Pseudomonas aeruginosa, TI13, 18 h
Method: as §1, §2

[14] = test system: Serratia marcescens; assay: as above; assay type: cell-based; settings: Table 3, 27° C., 18 hours, read-out: MIC
Method: as §1, §2

[15] = test system: S. epidermidis 109; assay: as above; assay type: cell-based
Method: as §1, §2

[16] = test system: Salmonella typhi T-63; assay: as above; assay type: cell-based; settings: Salmonella enterica, Table 3, 27° C., 18 hours
Method: as §1, §2

[17] = test system: Klebsiella pneumoniae PCI602; assay: as above; assay type: cell-based; settings: PCI602, 18 h
Method: as §1, §2

[18] = test system: P. aeruginosa PST1; assay: as above; assay type: cell-based; settings: Pseudomonas aeruginosa, Table 3, 27° C., 18 hours
Method: as §1, §2

[19] = test system: Shigella dysenteriae JSI1910; assay: as above; assay type: cell-based; settings: JSI1910, 18 h
Method: as §1, §2

[20] = test system: Pseudomonas aeruginosa A3; assay: as above; assay type: cell-based
Method: as §1, §2

[21] = test system: S. aureus Smith; assay: as above; assay type: cell-based; settings: Staphylococcus aureus; Table 3; 27° C., 18 hours
Method: as §1, §2

[22] = test system: Bacillus subtilis PCI219; assay: as above; assay type: cell-based; settings: Table 3, 27° C., 18 hours
Method: as §1, §2

[23] = test system: clinically isolated strains of MRSA; assay: Antibacterial MIC spectra against 50 clinically isolated strains of MRSA; assay type: cell-based, methicillin-resistant Staphylococcus aureus; settings: Staphylococcus aureus; for MIC90: 90% of the 50 MRSA strains inhibited, read-out: MIC90; for MIC: range over 50 clinically isolated strains of MRSA, read-out: Antibacterial MIC spectra
Method: as §1
Note:- MIC50 or MIC90 represents the concentration of tested
active compound at which 50% or 90% of the total numbers of the bacterial
strains tested were inhibited from their growth. DKB denotes dibekacin,
as §2

[24] = Solubility in water; assay type: physicochemical

| SMILES | antibacterial activity (in words) [1] | LD50 at 336 h [2] [mg/kg] | MIC [3] [µg/mL] | MIC [6] [µg/mL] | MIC [7] [µg/mL] | MIC [8] [µg/mL] | MIC [9] [µg/mL] | MIC [11] [µg/mL] | MIC [12] [µg/mL] | MIC [13] [µg/mL] | MIC [14] [µg/mL] | MIC [16] [µg/mL] | MIC [17] [µg/mL] | MIC [18] [µg/mL] | MIC [19] [µg/mL] | MIC [21] [µg/mL] | MIC [22] [µg/mL] | MIC90 ([23]; 27° C., 18 hours) [µg/mL] | MIC ([23]; 27° C., 18 hours) [µg/mL] | Solubility [24] | further results |
| --- | --- | --- | --- | --- | --- | --- | --- | --- | --- | --- | --- | --- | --- | --- | --- | --- | --- | --- | --- | --- | --- |
| CN[C@@H]1[C@@H](O)[C@@H](O[C@@H]2[C@H](N)[C@H](O[C@H]3OC(CN)=CC[C@H]3N)[C@@H](N)C[C@H]2N)OC[C@]1(C)O [5-epi-amino-5-deoxysisomicin] | good antibacterial activity | – | – | – | – | – | – | – | – | – | – | – | – | – | – | – | – | – | – | – | – |
| CN[C@@H]1[C@@H](O)[C@@H](O[C@@H]2[C@H](F)[C@H](O[C@H]3OC(CN)=CC[C@H]3N)[C@@H](N)C[C@H]2N)OC[C@]1(C)O [5-epi-fluoro-5-deoxysisomicin] | good antibacterial activity | – | – | – | – | – | – | – | – | – | – | – | – | – | – | – | – | – | – | – | – |
| NC[C@@H]1CC[C@@H](N)[C@@H](O[C@H]2[C@H](O)[C@@H](O[C@H]3O[C@H](CO)[C@@H](O)[C@H](N)[C@H]3N)[C@H](N)C[C@@H]2N)O1 [Compound IIa, 2"-Amino-2"-deoxydibekacin] | – | > 100 | 1.56 (≈ 3.46 µM) | 1.56 (≈ 3.46 µM) | 6.25 (≈ 13.9 µM) | 0.78 (≈ 1.73 µM) | 3.13 (≈ 6.95 µM) | 0.78 (≈ 1.73 µM) | 3.13 (≈ 6.95 µM) | 3.13 (≈ 6.95 µM) | 12.5 (≈ 27.7 µM) | 1.56 (≈ 3.46 µM) | 3.13 (≈ 6.95 µM) | 50 (≈ 111 µM) | 3.13 (≈ 6.95 µM) | 0.39 (≈ 0.866 µM) | ≤ 0.2 | 25 (≈ 55.5 µM) | 0.2 to 50 (≈ 0.444 to 111 µM) | easily soluble in water | MIC ([4]; ATCC10702, 18 h): 3.13 µg/mL (≈ 6.95 µM); MIC ([5]; OX19, 18 h): 1.56 µg/mL (≈ 3.46 µM); MIC ([10]; GN311, 18 h): 1.56 µg/mL (≈ 3.46 µM); MIC ([15]; Staphylococcus epidermidis, 109, 18 h): 1.56 µg/mL (≈ 3.46 µM); MIC ([20]; A3, 18 h): 1.56 µg/mL (≈ 3.46 µM); MIC50 ([23]; 50% of the 50 MRSA strains inhibited, 27° C., 18 hours, read-out: MIC50): 6.25 µg/mL (≈ 13.9 µM) |
| NC[C@@H]1CC[C@@H](N)[C@@H](O[C@H]2C[C@@H](O[C@H]3O[C@H](CO)[C@@H](O)[C@H](N)[C@H]3N)[C@H](N)C[C@@H]2N)O1 [Compound IIb, 2"-Amino-5,2"-dideoxydibekacin] | – | 50 to 100 | 3.13 (≈ 7.2 µM) | 3.13 (≈ 7.2 µM) | 12.5 (≈ 28.8 µM) | 0.39 (≈ 0.898 µM) | 6.25 (≈ 14.4 µM) | 1.56 (≈ 3.59 µM) | 6.25 (≈ 14.4 µM) | 3.13 (≈ 7.2 µM) | 25 (≈ 57.5 µM) | 3.13 (≈ 7.2 µM) | 3.13 (≈ 7.2 µM) | 100 (≈ 230 µM) | 6.25 (≈ 14.4 µM) | ≤ 0.2 | ≤ 0.2 | 25 (≈ 57.5 µM) | 0.78 to 25 (≈ 1.8 to 57.5 µM) | easily soluble in water | MIC ([4]; ATCC10702, Table 3, 27° C., 18 hours, read-out: MIC): 1.56 µg/mL (≈ 3.59 µM); MIC ([5]; OX19, Table 3, 27° C., 18 hours, read-out: MIC): 1.56 µg/mL (≈ 3.59 µM); MIC ([10]; GN311, Table 3, 27° C., 18 hours, read-out: MIC): 1.56 µg/mL (≈ 3.59 µM); MIC ([15]; Staphylococcus epidermidis, 109, Table 3, 27° C., 18 hours, read-out: MIC): 0.78 µg/mL (≈ 1.8 µM); MIC ([20]; A3, Table 3, 27° C., 18 hours, read-out: MIC): 0.78 µg/mL (≈ 1.8 µM); MIC50 ([23]; MRSA, 18 h): 3.13 µg/mL (≈ 7.2 µM) |
